Data reported in US8580829B2 (Boehringer Ingelheim International GmbH, priority 2010, dated 2013).

Legend:
[1] = target: T1, recombinant human FLAP protein (Homo sapiens, UniProt P20292); test: FLAP binding assay (Scintillation Proximity Assay, displacement of [125I]L-691,831); conditions: recombinant human FLAP membranes, [125I]L-691,831 probe; read-out: FLAP SPA IC50
T1 construct: made in house; host or cells: Sf9 insect cells (100,000 x g membrane fraction)
T1 sequence (P20292 1-161): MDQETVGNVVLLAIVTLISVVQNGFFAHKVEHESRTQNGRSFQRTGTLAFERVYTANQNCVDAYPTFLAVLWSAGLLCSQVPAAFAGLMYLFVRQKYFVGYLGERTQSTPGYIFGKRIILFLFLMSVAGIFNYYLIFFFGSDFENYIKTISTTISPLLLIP
Procedure: Cell pellets produced from sf9 insect cells expressing recombinant human FLAP protein are resuspended in buffer A [15 mM Tris-HCl (pH 7.5), 2 mM MgCl2, 0.3 mM EDTA, 1 mM PMSF]. The cells are lysed with a Dounce homogenizer and the material is centrifuged at 10,000×g for 10 minutes. The supernatant is then collected and centrifuged at 100,000×g for 60 minutes. To prepare membrane protein for an assay, an aliquot of the 100,000×g pellet is resuspended in 1 ml of buffer A, Dounce homogenized, and finally subjected to polytron mixing (30 seconds). Membrane protein (25 μl, 5 μg) is mixed with WGA SPA beads (Amersham) and stirred for 1 h.

[2] = test system: synthesis of LTB4 in human whole blood; test: human whole blood LTB4 production inhibition assay; assay type: cell-based; conditions: Homo sapiens, heparinized human whole blood, calcimycin 20 μM; read-out: hWB LTB4 IC50
Procedure: Compounds are additionally tested in a human whole blood assay to determine their ability to inhibit the synthesis of LTB4 in a cellular system. Compounds are combined with heparinized human whole blood and incubated for 15 minutes at 37° C. Calcimycin (20 μM final, prepared in phosphate-buffered saline, pH 7.4) is then added and the mixture is incubated for another 30 minutes at 37° C. The samples are centrifuged for 5 min at low speed (1500×g) and the plasma layer is removed. Plasma LTB4 concentrations are then measured using an antibody-based homogenous time-resolved fluorescence method (CisBio, Bedford, Mass.).

| IC50 [1] | IC50 [2] | SMILES |
| --- | --- | --- |
| 8.4 nM | 330 nM | COC(=O)c1cnc(-c2nc(C3(c4ccc(-c5cnc(N)nc5)cc4)CCC3)no2)cn1 [Example 1, 5-(3-{1-[4-(2-amino-pyrimidin-5-yl)-phenyl]-cyclobutyl}-1,2,4-oxadiazol-5-yl)-pyrazine-2-carboxylic acid methyl ester] |
| 2.2 nM | 100 nM | CCn1ncc(-c2nc(C3(c4ccc(-c5cnc(N)nc5)cc4)CCC3)no2)c1C [Example 2, 5-(4-{1-[5-(1-ethyl-5-methyl-1H-pyrazol-4-yl)-1,2,4-oxadiazol-3-yl]-cyclobutyl}-phenyl)-pyrimidin-2-ylamine] |
| 5.6 nM | 350 nM | Cn1cc(-c2nc(C3(c4ccc(-c5cnc(N)nc5)cc4)CCC3)no2)ccc1=O [Example 3, 5-(3-{1-[4-(2-Amino-pyrimidin-5-yl)-phenyl]-cyclobutyl}-1,2,4-oxadiazol-5-yl)-1-methyl-1H-pyridin-2-one] |
| 4.6 nM | 720 nM | Nc1ncc(-c2ccc(C3(c4noc(-c5cccnc5N)n4)CCC3)cc2)cn1 [Example 4, 5-(4-{1-[5-(2-Amino-pyridin-3-yl)-1,2,4-oxadiazol-3-yl]-cyclobutyl}-phenyl)-pyrimidin-2-ylamine] |
| 2.4 nM | > 5000 nM | Cc1cc(-c2nc(C3(c4ccc(-c5cnc(N)nc5)cc4)CCC3)no2)[nH]n1 [Example 5, 5-(4-{1-[5-(5-Methyl-2H-pyrazol-3-yl)-1,2,4-oxadiazol-3-yl]-cyclobutyl}-phenyl)-pyrimdin-2-ylamine] |
| 1.1 nM | 150 nM | Cc1n[nH]cc1-c1nc(C2(c3ccc(-c4cnc(N)nc4)cc3)CCC2)no1 [Example 6, 5-(4-{1-[5-(3-Methyl-1H-pyrazol-4-yl)-1,2,4-oxadiazol-3-yl]-cyclobutyl}-phenyl)-pyrimidin-2-ylamine] |
| 2.4 nM | 50 nM | Cn1ncc(-c2nc(C3(c4ccc(-c5cnc(N)nc5)cc4)CCC3)no2)c1N [Example 7, 5-(4-{1-[5-(5-Amino-1-methyl-1H-pyrazol-4-yl)-1,2,4-oxadiazol-3-yl]-cyclobutyl}-phenyl)-pyrimidin-2-ylamine] |
| 8.5 nM | 400 nM | Nc1ncc(-c2ccc(C3(c4noc(-c5cccnn5)n4)CCC3)cc2)cn1 [Example 8, 5-{4-[1-(5-Pyridazin-3-yl-1,2,4-oxadiazol-3-yl)-cyclobutyl]-phenyl}-pyrimidin-2-ylamine] |
| 7 nM | 2000 nM | Nc1ncc(-c2ccc(C3(c4noc(-c5c[nH]c(=O)[nH]5)n4)CCC3)cc2)cn1 [Example 9, 4-(3-{1-[4-(2-Amino-pyrimidin-5-yl)-phenyl]-cyclobutyl}-1,2,4-oxadiazol-5-yl)-1,3-dihydro-imidazol-2-one] |
| 2.1 nM | 290 nM | Cc1ncc(-c2nc(C3(c4ccc(-c5cnc(N)nc5)cc4)CCC3)no2)[nH]1 [Example 10, 5-(4-{1-[5-(2-Methyl-3H-imidazol-4-yl)-1,2,4-oxadiazol-3-yl]-cyclobutyl}-phenyl)-pyrimidin-2-ylamine] |
| 120 nM | 1300 nM | Nc1ncc(-c2ccc(C3(c4noc(C(=O)N5CCCC5)n4)CCC3)cc2)cn1 [Example 11, (3-{1-[4-(2-Amino-pyrimidin-5-yl)-phenyl]-cyclobutyl}-1,2,4-oxadiazol-5-yl)-pyrrolidin-1-yl-methanone] |
| 8.3 nM | 470 nM | Nc1ncc(-c2ccc(C3(c4noc(N5CCCC5)n4)CCC3)cc2)cn1 [Example 12, 5-{4-[1-(5-Pyrrolidin-1-yl-1,2,4-oxadiazol-3-yl)-cyclobutyl]-phenyl}-pyrimidin-2-ylamine] |
| 170 nM | > 5000 nM | CCNC(=O)c1nc(C2(c3ccc(-c4cnc(N)nc4)cc3)CCC2)no1 [Example 13, 3-{1-[4-(2-Amino-pyrimidin-5-yl)-phenyl]-cyclobutyl}-1,2,4-oxadiazole-5-carboxylic acid ethylamide] |
| 57 nM | > 5000 nM | CN(C)C(=O)c1nc(C2(c3ccc(-c4cnc(N)nc4)cc3)CCC2)no1 [Example 14, 3-{1-[4-(2-Amino-pyrimidin-5-yl)-phenyl]-cyclobutyl}-1,2,4-oxadiazole-5-carboxylic acid dimethylamide] |
| 3.3 nM | > 5000 nM | Nc1ncc(-c2ccc(C3(c4noc(-c5c[nH]c(=O)cn5)n4)CCC3)cc2)cn1 [Example 16, 5-(3-{1-[4-(2-Amino-pyrimidin-5-yl)-phenyl]-cyclobutyl}-1,2,4-oxadiazol-5-yl)-1H-pyrazin-2-one] |
| 2.1 nM | 180 nM | NC(=O)c1ccc(-c2nc(C3(c4ccc(-c5cnc(N)nc5)cc4)CCC3)no2)cn1 [Example 17, 5-(3-{1-[4-(2-Amino-pyrimidin-5-yl)-phenyl]-cyclobutyl}-1,2,4-oxadiazol-5-yl)-pyridine-2-carboxylic acid amide] |
| 2.9 nM | 300 nM | Nc1ncc(-c2ccc(C3(c4noc(-c5cnc(N)nc5)n4)CCC3)cc2)cn1 [Example 18, 5-(4-{1-[5-(2-Amino-pyrimidine-5-yl)-1,2,4-oxadiazole-3-yl]-cyclobutyl}-phenyl)-pyrimidin-2-ylamine] |
| 11 nM | 1400 nM | Nc1ncc(-c2ccc(C3(c4noc(-c5nccnc5N)n4)CCC3)cc2)cn1 [Example 19, 5-(4-{1-[5-(3-Amino-pyrazin-2-yl)-1,2,4-oxadiazol-3-yl]-cyclobutyl}-phenyl)-pyrimidin-2-ylamine] |
| 1.9 nM | 63 nM | Nc1ccc(-c2nc(C3(c4ccc(-c5cnc(N)nc5)cc4)CCC3)no2)cn1 [Example 20, 5-(4-{1-[5-(6-Amino-pyridin-3-yl)-1,2,4-oxadiazol-3-yl]-cyclobutyl}-phenyl)-pyrimidin-2-ylamine] |
| 3.1 nM | 160 nM | Cn1ccc(-c2nc(C3(c4ccc(-c5cnc(N)nc5)cc4)CCC3)no2)cc1=O [Example 21, 4-(3-{1-[4-(2-Amino-pyrimidin-5-yl)-phenyl]-cyclobutyl}-1,2,4-oxadiazol-5-yl)-1-methyl-1H-pyridin-2-one] |
| 2.6 nM | 140 nM | Cc1cnc(-c2nc(C3(c4ccc(-c5cnc(N)nc5)cc4)CCC3)no2)cn1 [Example 22, 5-(4-{1-[5-(5-Methyl-pyrazin-2-yl)-1,2,4-oxadiazol-3-yl]-cyclobutyl}-phenyl)-pyrimidin-2-ylamine] |
| 4.2 nM | 73 nM | Cn1cnc(-c2nc(C3(c4ccc(-c5cnc(N)nc5)cc4)CCC3)no2)c1 [Example 23] |
| 11 nM | 460 nM | CCNc1nc(C2(c3ccc(-c4cnc(N)nc4)cc3)CCC2)no1 [Example 24, 5-{4-[1-(5-Ethylamino-1,2,4-oxadiazol-3-yl)-cyclobutyl]-phenyl}-pyrimidin-2-ylamine] |
| 160 nM | 1600 nM | Nc1ncc(-c2ccc(C3(c4noc(N5CCCC5=O)n4)CCC3)cc2)cn1 [Example 26, 1-(3-{1-[4-(2-Amino-pyrimidin-5-yl)-phenyl]-cyclobutyl}-1,2,4-oxadiazol-5-yl)-pyrrolidin-2-one] |
| 340 nM | > 5000 nM | CS(=O)(=O)Nc1nc(C2(c3ccc(-c4cnc(N)nc4)cc3)CCC2)no1 [Example 27, N-(3-{1-[4-(2-Amino-pyrimidin-5-yl)-phenyl]-cyclobutyl}-1,2,4-oxadiazol-5-yl)-methanesulfonamide] |
| 4.3 nM | 320 nM | CNC(=O)c1ccc(-c2nc(C3(c4ccc(-c5cnc(N)nc5)cc4)CCC3)no2)cn1 [Example 28, 5-(3-{1-[4-(2-Amino-pyrimidin-5-yl)-phenyl]-cyclobutyl}-1,2,4-oxadiazol-5-yl)-pyridine-2-carboxylic acid methylamide] |
| 6.9 nM | 190 nM | CN(C)C(=O)c1ccc(-c2nc(C3(c4ccc(-c5cnc(N)nc5)cc4)CCC3)no2)cn1 [Example 29, 5-(3-{1-[4-(2-Amino-pyrimidin-5-yl)-phenyl]-cyclobutyl}-1,2,4-oxadiazol-5-yl)-pyridine-2-carboxylic acid dimethylamide] |
| 6.5 nM | 230 nM | Nc1ncc(-c2ccc(C3(c4noc(-c5ccc(C(=O)N6CCOCC6)nc5)n4)CCC3)cc2)cn1 [Example 30, [5-(3-{1-[4-(2-Amino-pyrimidin-5-yl)-phenyl]-cyclobutyl}-1,2,4-oxadiazol-5-yl)-pyridin-2-yl]-morpholin-4-yl-methanone] |
| 3 nM | 1300 nM | Cn1cc(-c2nc(C3(c4ccc(-c5cnc(N)nc5)cc4)CCC3)no2)ncc1=O [Example 31, 5-(3-{1-[4-(2-Amino-pyrimidin-5-yl)-phenyl]-cyclobutyl}-1,2,4-oxadiazol-5-yl)-1-methyl-1Hpyrazin-2-one] |
| 4.6 nM | 77 nM | Cn1cccc(-c2nc(C3(c4ccc(-c5cnc(N)nc5)cc4)CCC3)no2)c1=O [Example 32, 3-(3-{1-[4-(2-Amino-pyrimidin-5-yl)-phenyl]-cyclobutyl}-1,2,4-oxadiazol-5-yl)-1-methyl-1Hpyridin-2-one] |
